Experimental data: US20190374518A1, “TREATMENT OF MIGRAINE” (Allergan Pharmaceuticals International Limited, priority 2018, published 2019)

Columns and labels:
[1] = Study A: randomized, double-blind, placebo-controlled study, acute treatment of a single migraine attack; type: in vivo, human; conditions: for Absence of Most-Bothersome Migraine Associated Symptom at 2 hours after the initial dose: Odds Ratio (95% CI) / Pain Freedom at 2 hours after the initial dose: Odds Ratio (95% CI): mITT
Protocol: (§1) Study A and Study B were multicenter, randomized, double-blind, placebo-controlled, parallel-group, studies designed to evaluate the efficacy, safety, and tolerability of three doses of ubrogepant (25 mg, 50 mg and 100 mg) compared to placebo for the acute treatment of a single migraine attack. In Study A, patients were randomized (1:1:1) to 1 of 3 treatment groups: placebo, ubrogepant 50 mg, or ubrogepant 100 mg. In Study B, patients were randomized (1:1:1) to 1 of 3 treatment groups: placebo, ubrogepant 25 mg, or ubrogepant 50 mg. Patients were stratified by their previous response to triptans (triptan responder, triptan insufficient responder, triptan naïve) and their current use of prophylactic concomitant medication for migraine (yes/no). To be randomized, eligible patients had to be 18 to 75 years of age (inclusive), have a history of migraine with or without aura for at least 1 year consistent with a diagnosis according to the International Classification of Headache Disorders criteria, 3rd edition, beta version, and had to have experienced between 2 to 8 migraine attacks with moderate to severe headache pain in each of the 3 months before Screening (Visit 1). Patients who had clinically significant hematologic, endocrine, cardiovascular, cerebrovascular, pulmonary, renal, hepatic, gastrointestinal, or neurologic disease were excluded from the study. Study patients randomized to a treatment group had up to 60 days to treat a single qualifying migraine attack of moderate or severe pain intensity at home. In Study A, a total of 1672 patients were randomized to double-blind treatment (ITT population), and 1436 patients took at least 1 dose of double-blind IP (safety population). A total of 1327 treated patients recorded a baseline migraine headache severity measurement and at least 1 postdose migraine headache severity or migraine-associated symptom measurement within 2 hours after dosing (mITT population). In Study B, a total of 1,686 patients were randomized to double-blind treatment (ITT population), and 1,465 patients took at least 1 dose of double-blind IP (safety population). A total of 1355 treated patients recorded a baseline migraine headache severity measurement and at least 1 postdose migraine headache severity or migraine-associated symptom measurement within 2 hours after dosing (mITT population). The coprimary efficacy endpoints for the United States were pain freedom (PF) at 2 hours after the initial dose, defined as a reduction in headache severity from moderate/severe at baseline to no pain, at 2 hours after the initial dose and absence of the most bothersome migraine-associated symptom at 2 hours after the initial dose. The most bothersome migraine-associated symptom was identified at baseline for each patient.

[2] = Study B: randomized, double-blind, placebo-controlled study, acute treatment of a single migraine attack; type: in vivo, human; conditions: for Absence of Most-Bothersome Migraine Associated Symptom at 2 hours after the initial dose: Odds Ratio (95% CI) / Pain Freedom at 2 hours after the initial dose: Odds Ratio (95% CI): mITT
Protocol: as §1

[3] = 50 mg vs placebo, Triptan Insufficient Responder
[4] = 50 mg vs placebo, Triptan Naïve
[5] = 50 mg vs placebo, Triptan Responder
[6] = 100 mg vs placebo, Triptan Insufficient Responder
[7] = 100 mg vs placebo, Triptan Naïve
[8] = 100 mg vs placebo, Triptan Responder
[9] = 100 mg, Triptan Insufficient Responder, N1=126, mITT
[10] = 100 mg, Triptan Naïve, N1=149, mITT
[11] = 100 mg, Triptan Responder, N1=173, mITT
[12] = 25 mg vs placebo, Triptan Insufficient Responder
[13] = 25 mg vs placebo, Triptan Responder
[14] = 25 mg, Triptan Insufficient Responder, N1=100, mITT
[15] = 50 mg, Triptan Insufficient Responder, N1=110, mITT
[16] = 50 mg, Triptan Responder, N1=160, mITT

With `C[C@@H]1[C@H](c2ccccc2)C[C@H](NC(=O)c2cnc3c(c2)C[C@@]2(C3)C(=O)Nc3ncccc32)C(=O)N1CC(F)(F)F` [Ubrogepant, ubrogepant] as the molecule, how does the “Absence of Most-Bothersome Migraine Associated Symptom at 2 hours after the initial dose: Odds Ratio (95% CI)” value (“Absence … Odds Ratio (95% CI)” for short) [1, 3] read?
Its value is 1.80.

What about the “Pain Freedom at 2 hours after the initial dose: Odds Ratio (95% CI)” value (“Pain Freedom at 2 hours … Odds Ratio (95% CI)” for short) [1, 3] of the same molecule?
Its value is 2.41.

What about the “Absence … Odds Ratio (95% CI)” value [1, 4] of the same molecule?
Its value is 1.48.

And the “Pain Freedom at 2 hours … Odds Ratio (95% CI)” value [1, 4]?
Its value is 1.60.

And the “Absence … Odds Ratio (95% CI)” value [1, 5]?
The value was 1.85.

And the “Pain Freedom at 2 hours … Odds Ratio (95% CI)” value [1, 5]?
Its value is 1.86.

What about the “Absence of Most-Bothersome Migraine Associated Symptom at 2 hours after the initial dose: Responder rate (in parentheses)” value (shortened to “Absence … (in parentheses)”) ([1]; 50 mg, Triptan Insufficient Responder, N1=116, mITT) of the same molecule?
The value was “(33.6)”.

What about the “Pain Freedom at 2 hours after the initial dose: Responder rate (in parentheses)” value (from here on “Pain Freedom at 2 hours … (in parentheses)”) ([1]; 50 mg, Triptan Insufficient Responder, N1=118, mITT) of the same molecule?
The value was “(13.6)”.

And the “Absence … (in parentheses)” value ([1]; 50 mg, Triptan Naïve, N1=132, mITT)?
Its value is “(42.4)”.

What about the “Pain Freedom at 2 hours … (in parentheses)” value ([1]; 50 mg, Triptan Naïve, N1=133, mITT) of the same molecule?
The value was “(24.8)”.

And the “Pain Freedom at 2 hours … (in parentheses)” value ([1]; 50 mg, Triptan Responder, N1=171, mITT)?
Its value is “(18.7)”.

And the “Absence … (in parentheses)” value ([1]; 50 mg, Triptan Responder, N1=172, mITT)?
The value was “(39.0)”.

What about the “Absence … Odds Ratio (95% CI)” value [1, 6] of the same molecule?
Its value is 1.50.

What about the “Pain Freedom at 2 hours … Odds Ratio (95% CI)” value [1, 6] of the same molecule?
The value was 2.49.

What about the “Absence … Odds Ratio (95% CI)” value [1, 7] of the same molecule?
Its value is 1.22.

What about the “Pain Freedom at 2 hours … Odds Ratio (95% CI)” value [1, 7] of the same molecule?
Its value is 1.26.

What about the “Absence … Odds Ratio (95% CI)” value [1, 8] of the same molecule?
The value was 2.18.

What about the “Pain Freedom at 2 hours … Odds Ratio (95% CI)” value [1, 8] of the same molecule?
The value was 2.89.

What about the “Absence … (in parentheses)” value [1, 9] of the same molecule?
The value was “(30.2)”.

And the “Pain Freedom at 2 hours … (in parentheses)” value [1, 9]?
Its value is “(14.3)”.

And the “Absence … (in parentheses)” value [1, 10]?
Its value is “(37.6)”.

And the “Pain Freedom at 2 hours … (in parentheses)” value [1, 10]?
The value was “(20.8)”.

And the “Absence … (in parentheses)” value [1, 11]?
The value was “(43.4)”.

What about the “Pain Freedom at 2 hours … (in parentheses)” value [1, 11] of the same molecule?
Its value is “(26.6)”.

What about the “Absence … Odds Ratio (95% CI)” value [2, 12] of the same molecule?
Its value is 1.65.

What about the “Pain Freedom at 2 hours … Odds Ratio (95% CI)” value [2, 12] of the same molecule?
Its value is 1.81.

What about the “Absence … Odds Ratio (95% CI)” value ([2]; 25 mg vs placebo, Triptan Naive) of the same molecule?
The value was 1.32.

What about the “Pain Freedom at 2 hours … Odds Ratio (95% CI)” value ([2]; 25 mg vs placebo, Triptan Naïve) of the same molecule?
The value was 1.50.

What about the “Absence … Odds Ratio (95% CI)” value [2, 13] of the same molecule?
The value was 1.26.

What about the “Pain Freedom at 2 hours … Odds Ratio (95% CI)” value [2, 13] of the same molecule?
The value was 1.52.

And the “Absence … (in parentheses)” value [2, 14]?
Its value is “(37.0)”.

And the “Pain Freedom at 2 hours … (in parentheses)” value [2, 14]?
The value was “(18.0)”.

And the “Absence … (in parentheses)” value ([2]; 25 mg, Triptan Naive, N1=184, mITT)?
The value was “(34.2)”.

And the “Pain Freedom at 2 hours … (in parentheses)” value ([2]; 25 mg, Triptan Naïve, N1=184, mITT)?
Its value is “(25.5)”.

What about the “Absence … (in parentheses)” value ([2]; 25 mg, Triptan Responder, N1=150, mITT) of the same molecule?
The value was “(32.0)”.

What about the “Pain Freedom at 2 hours … (in parentheses)” value ([2]; 25 mg, Triptan Responder, N1=151, mITT) of the same molecule?
The value was “(16.6)”.

And the “Absence … Odds Ratio (95% CI)” value [2, 3]?
The value was 1.72.

And the “Pain Freedom at 2 hours … Odds Ratio (95% CI)” value [2, 3]?
The value was 1.97.

What about the “Absence … Odds Ratio (95% CI)” value ([2]; 50 mg vs placebo, Triptan Naive) of the same molecule?
The value was 1.54.

What about the “Pain Freedom at 2 hours … Odds Ratio (95% CI)” value [2, 4] of the same molecule?
The value was 1.22.

What about the “Absence … Odds Ratio (95% CI)” value [2, 5] of the same molecule?
Its value is 1.76.

And the “Pain Freedom at 2 hours … Odds Ratio (95% CI)” value [2, 5]?
The value was 2.19.

What about the “Absence … (in parentheses)” value [2, 15] of the same molecule?
The value was “(38.2)”.

What about the “Pain Freedom at 2 hours … (in parentheses)” value [2, 15] of the same molecule?
The value was “(19.1)”.

What about the “Absence … (in parentheses)” value ([2]; 50 mg, Triptan Naive, N1=193, mITT) of the same molecule?
The value was “(39.4)”.

What about the “Pain Freedom at 2 hours … (in parentheses)” value ([2]; 50 mg, Triptan Naïve, N1=194, mITT) of the same molecule?
Its value is “(23.2)”.

What about the “Absence … (in parentheses)” value [2, 16] of the same molecule?
The value was “(38.8)”.

And the “Pain Freedom at 2 hours … (in parentheses)” value [2, 16]?
Its value is “(21.9)”.
